Results published in patent US20090227619A1, “Harmine derivatives, intermediates used in their preparations, preparation processes and use therefo” (priority 2003, published 2009).
“And” between values parts separate entries of the source, which are not always exact repeats. Equal entries are not always repeated. Where two headings read alike, the source gives them in different places.

What was measured:
[1] = test system: Bel-7402; test: In vitro cytotoxicity, IC50 by MTT method, Bel-7402; type: cell-based
Experimental: (§1) Culture medium powder RPMI1640 was dissolved in a proper amount of tri-distilled water according to the instruction of the product. […] It was the basic culture solution. The complete culture solution was added with FBS having a final concentration of 10%, 100 U/ml penicillin and 100 µg/ml streptomycin. The solution was fully stirred by a magnetic blender, and the pH of the solution was adjusted to 6.8-7.0. The volume was kept constant. After being filtered and disinfected, the solution was kept into several containers which were sealed and stored at 4° C.
(§2) The cells were placed in a culture dish followed by the addition of complete culture liquid RPMI1640 and then cultured in a incubator comprising 5% CO2 at 37° C. In the exponential growth phase, the cells grew vigorously. If the culture liquid became yellow, the liquid should be replaced instantly.
(§3) The cells, at a concentration of 10^5/ml, were inoculated at a 96-pore culture plate. In each pore, 100 μl cells were inoculated. The cells were placed in a CO2 incubator until the cells were in the logarithmic growth phase. The samples to be tested were added according to the preset concentration gradient. For each gradient, the test was conducted at least three times. An equivalent amount of solvent for dissolving the samples was added in the control group. After 48 h of culture, each pore was added 20 μl MTT (5 mg/ml). The cells were cultured at 37° C. for 4 h. After the supernatant was carefully removed, 100 μl DMSO was added in each pore. The plate was agitated for about 10 minutes such that the precipitates were dissolved. After that, OD value was identified with a Microplate Reader at the wavelength of 490 nm. The survival rate of the cells at various concentrations was calculated according to the following formula:
(§4) Survival rate %=average OD value of the sample group/average OD value of the control group×100%
(§5) Plots of log survival rate of the cells vs. concentration of the medicament were constructed, and the IC50 value of each sample was calculated according to graphing methods.

[2] = test system: PLA-801; test: In vitro cytotoxicity, IC50 by MTT method, PLA-801; type: cell-based
Experimental: as §1, §2, §3, §4, §5

[3] = test system: Lovo; test: In vitro cytotoxicity, IC50 by MTT method, Lovo; type: cell-based
Experimental: as §1, §2, §3, §4, §5

[4] = test system: HepG2; test: In vitro cytotoxicity, IC50 by MTT method, HepG2; type: cell-based, human
Experimental: as §1, §2, §3, §4, §5

[5] = test system: BGC-823; test: In vitro cytotoxicity, IC50 by MTT method, BGC-823; type: cell-based
Experimental: as §1, §2, §3, §4, §5

[6] = test system: NIH3T3; test: In vitro cytotoxicity, IC50 by MTT method, NIH3T3; type: cell-based
Experimental: as §1, §2, §3, §4, §5

[7] = test system: Hela; test: In vitro cytotoxicity, IC50 by MTT method, Hela; type: cell-based
Experimental: as §1, §2, §3, §4, §5

[8] = test system: Lewis lung cancer; settings: Lewis lung cancer;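 also: mice implanted subcutaneously in the axilla with Lewis lung tumor cells, treated starting the following day, killed roughly three weeks after implantation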
[9] = test system: S180 sarcoma; settings: S180 sarcoma
[10] = Bel7402 cell strain, read-out: IC50 Bel7402
[11] = PLA-801 cell strain, read-out: IC50 PLA-801
[12] = Lovo cell strain, read-out: IC50 Lovo
[13] = HepG2 cell strain, read-out: IC50 HepG2
[14] = BGC823 cell strain, read-out: IC50 BGC823
[15] = NIH3T3 cell strain, read-out: IC50 NIH3T3
[16] = Hela cell strain, read-out: IC50 Hela
[17] = Homo sapiens, Bel-7402, BeI7402, MTT, read-out: IC50
[18] = Homo sapiens, Lovo, MTT, read-out: IC50
[19] = Homo sapiens, HepG2, MTT, read-out: IC50
[20] = Homo sapiens, BGC-823, BGC823, MTT, read-out: IC50
[21] = Mus musculus, NIH3T3, MTT, read-out: IC50
[22] = Homo sapiens, Hela, MTT, read-out: IC50
[23] = Dosage 30 (mg/ml), ip × 7qd, listed as CTX
[24] = Dosage 30 (mg/ml), ip × 7qd, second time, listed as CTX

Compound: 2,9-diethyl-β-carbolinium bromate [Compound 88]
- IC50 [1, 10]: 1310 µM
- IC50 [2, 11]: 1200 µM
- IC50 [3, 12]: 2150 µM
- IC50 [4, 13]: 430 µM
- IC50 [5, 14]: 1310 µM
- IC50 [6, 15]: 630 µM
- IC50 [7, 16]: 860 µM

Compound: CCCCOC(=O)c1cc2c(cn1)[nH]c1ccccc12 [Compound 18, butyl β-carboline-3-carboxylate]
- IC50 [1, 17]: 310 µM
- IC50 ([2]; PLA-801, MTT, read-out: IC50): 680 µM
- IC50 [3, 18]: 100 µM
- IC50 [4, 19]: 270 µM
- IC50 [5, 20]: 390 µM
- IC50 [6, 21]: 150 µM
- IC50 [7, 22]: 290 µM

Compound: COc1ccc2c3ccnc(C)c3n(CCCc3ccccc3)c2c1 [Compound 8, 9-phenylpropyl-7-methoxy-1-methyl-β-carboline]
- IC50 [1, 17]: 40 µM
- IC50 ([2]; PLA-801, MTT, read-out: IC50): 50 µM
- IC50 [3, 18]: 30 µM
- IC50 [4, 19]: 40 µM
- IC50 [5, 20]: 50 µM
- IC50 [6, 21]: 20 µM
- IC50 [7, 22]: 20 µM

Compound: CCn1c2ccccc2c2cc(C(=O)NN)ncc21 [Compound 51, 3-carbohydrazine 9-ethyl-β-carboline]
- IC50 [1, 10]: 370 µM
- IC50 [2, 11]: 510 µM
- IC50 [3, 12]: 190 µM
- IC50 [4, 13]: 260 µM
- IC50 [5, 14]: 110 µM
- IC50 [6, 15]: 510 µM
- IC50 [7, 16]: 240 µM

Compound: CCOC(=O)c1cc2c3ccccc3n(CC)c2cn1 [Compound 31, ethyl 9-ethyl-β-carboline-3-carboxylate]
- Body weight of the animals, end, First time ([8]; Dosage 50 (mg/ml), ip × 10qd): 24.3 g
- Body weight of the animals, beginning, First time ([8]; Dosage 50, ip × 10qd): 20.6 g
- Inhibition rate, First time ([8]; Dosage 50, ip × 10qd): 30.04%
- Weight of the tumor X ± SD, First time ([8]; Dosage 50, ip × 10qd): 1.70 ± 0.12 g
- Body weight of the animals, end, First time ([8]; Dosage 100 (mg/ml), ip × 10qd): 23.7 g
- Body weight of the animals, beginning, First time ([8]; Dosage 100, ip × 10qd): 20.5 g
- Inhibition rate, First time ([8]; Dosage 100, ip × 10qd): 36.21%
- Weight of the tumor X ± SD, First time ([8]; Dosage 100, ip × 10qd): 1.55 ± 0.22 g
- Inhibition rate (%) Lewis cancer ([8]; comparison table 43, in vivo): 37.02%
- IC50 ([1]; Homo sapiens, Bel-7402, Bel7402 cell strain, read-out: IC50 Bel7402): 260 µM
- IC50 [2, 11]: 170 µM
- IC50 ([3]; Homo sapiens, Lovo cell strain, read-out: IC50 Lovo): 70 µM
- Body weight of the animals, beginning, First time ([9]; Dosage 50 (mg/ml), ip × 10qd): 19.7 g
- Body weight of the animals, end, First time ([9]; Dosage 50 (mg/ml), ip × 10qd): 26.7 g
- Inhibition rate, First time ([9]; Dosage 50 (mg/ml), ip × 10qd): 28.04%
- Weight of the tumor X ± SD, First time ([9]; Dosage 50 (mg/ml), ip × 10qd): 1.88 ± 0.21 g
- Body weight of the animals, beginning, First time ([9]; Dosage 100 (mg/ml), ip × 10qd): 20.0 g
- Body weight of the animals, end, First time ([9]; Dosage 100 (mg/ml), ip × 10qd): 26.1 g
- Inhibition rate, First time ([9]; Dosage 100 (mg/ml), ip × 10qd): 37.02%
- Weight of the tumor X ± SD, First time ([9]; Dosage 100 (mg/ml), ip × 10qd): 1.65 ± 0.16 g
- Inhibition rate (%) S180 sarcomata ([9]; comparison table 43, in vivo): 36.21%
- IC50 ([4]; Homo sapiens, HepG2 cell strain, read-out: IC50 HepG2): 110 µM
- IC50 ([5]; Homo sapiens, BGC-823, BGC823 cell strain, read-out: IC50 BGC823): 140 µM
- IC50 ([6]; Mus musculus, NIH3T3 cell strain, read-out: IC50 NIH3T3): 100 µM
- IC50 ([7]; Homo sapiens, Hela cell strain, read-out: IC50 Hela): 140 µM

Compound: O=P1(N(CCCl)CCCl)NCCCO1 (centres unmarked) [cyclophosphamide, reference compound]
- Body weight of the animals, end, First time ([8]; Dosage 30 (mg/ml), Iv × 7qd, listed as CTX): 21.3 g and 20.2 g
- Body weight of the animals, end, Second time ([8]; Dosage 30 (mg/ml), Iv × 7qd, second time, listed as CTX): 21.3 g and 21.0 g
- Body weight of the animals, beginning, First time ([8]; Dosage 30, Iv × 7qd, listed as CTX): 20.1 g and 18.8 g
- Body weight of the animals, beginning, Second time ([8]; Dosage 30, Iv × 7qd, second time, listed as CTX): 18.9 g and 19.8 g
- Body weight of the animals, beginning, First time [9, 23]: 19.4 g and 18.7 g
- Body weight of the animals, end, First time [9, 23]: 20.9 g and 22.3 g
- Weight of the tumor X ± SD, First time [9, 23]: 0.33 ± 0.14 g and 0.33 ± 0.12 g
- Body weight of the animals, beginning, Second time [9, 24]: 19.8 g and 20.3 g
- Body weight of the animals, end, Second time [9, 24]: 23.2 g and 20.9 g

Compound: CCOC(=O)c1cc2c3ccccc3n(CC(=O)c3ccccc3)c2c(C)n1 [Compound 61, ethyl 9-acetophenone-1-methyl-β-carboline-3-carboxylate]
- IC50 [1, 10]: 460 µM
- IC50 [2, 11]: 160 µM
- IC50 [3, 12]: 50 µM
- IC50 [4, 13]: 70 µM
- IC50 [5, 14]: 90 µM
- IC50 [6, 15]: 90 µM
- IC50 [7, 16]: 60 µM

Compound: CCOC(=O)c1cc2c3ccccc3n(Cc3ccccc3)c2c[n+]1Cc1ccccc1.[O-][I+2]([O-])[O-] [Compound 85, 2,9-dibenzyl-3-ethoxycarbonyl-β-carbolinium iodate]
- IC50 [1, 10]: 40 µM
- IC50 [2, 11]: 30 µM
- IC50 [3, 12]: 30 µM
- IC50 [4, 13]: 20 µM
- IC50 [5, 14]: 40 µM
- IC50 [6, 15]: 20 µM
- IC50 [7, 16]: 30 µM

Compound: COC(=O)c1cc2c(cn1)[nH]c1ccccc12 [Compound 9, methyl β-carboline-3-carboxylate]
- IC50 ([1]; Homo sapiens, Bel-7402): 300 µM
- IC50 [2]: 310 µM
- IC50 ([3]; Homo sapiens, LoVo): 170 µM
- IC50 ([4]; Homo sapiens, HepG2): 2510 µM
- IC50 ([5]; Homo sapiens, BGC-823): 290 µM
- IC50 ([6]; Mus musculus, NIH3T3): 200 µM
- IC50 ([7]; Homo sapiens, HeLa): 100 µM
